In patent US10815276B2, “Cell penetrating peptides and methods of making and using thereof” (Entrada Therapeutics, Inc., priority 2014, dated 2020):
Starred links: 1 amine or outer side, 2 acyl side, 3 side chain; linkers in the order of their positions; H or OH if unused. Positions of bridges follow the written chain, without caps; N, C: chain ends. Non-standard residues stand in square brackets, D forms with d. Residues, ends and D or L forms follow the SMILES beside them. Trimesoyl = O=C(c1cc(C(=O)[*:2])cc(C(=O)[*:3])c1)[*:1]; Phe(4-F) = N[C@@H](Cc1ccc(F)cc1)C(=O)O; 2Nal = N[C@@H](Cc1ccc2ccccc2c1)C(=O)O; Pip = O=C(O)[C@@H]1CCCCN1; Dap = NC[C@H](N)C(=O)O; βAla = NCCC(=O)O; Sar = CNCC(=O)O

Biological target: T1, Pin1 (Homo sapiens, UniProt Q13526, S16A/Y23A)
T1 construct: The full-length human S16A/Y23A mutant Pin1 was expressed and purified from E. coli; made in house
Assay: Pin1 binding by FA (FITC-labeled peptides)
Conditions: FITC-labeled peptide, FA; read-out: KD

T1 sequence (Q13526 whole entry S16A/Y23A): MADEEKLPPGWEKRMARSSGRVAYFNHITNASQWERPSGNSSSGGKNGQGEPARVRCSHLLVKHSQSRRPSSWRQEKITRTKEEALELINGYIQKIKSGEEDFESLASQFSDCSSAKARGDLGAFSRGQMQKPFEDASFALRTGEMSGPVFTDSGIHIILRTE

Row | Kd [µM] | SMILES
1 | 2.17 ± 0.55 | C[C@H]1NC(=O)[C@H](Cc2ccc(O)cc2)NC(=O)[C@H](CCCNC(=N)N)NC(=O)[C@H](Cc2ccc3ccccc3c2)NC(=O)[C@@H]2CCCCN2C(=O)[C@@H](CC(=O)O)NC(=O)CN(C)C(=O)[C@@H]2CCCN2C(=O)c2cc3cc(c2)C(=O)NC[C@H](NC1=O)C(=O)N[C@@H](Cc1ccccc1)C(=O)N[C@@H](Cc1ccc2ccccc2c1)C(=O)N[C@@H](CCCNC(=N)N)C(=O)N[C@@H](CCCNC(=N)N)C(=O)N[C@@H](CCCNC(=N)N)C(=O)N[C@@H](CCCNC(=N)N)C(=O)N[C@H](C(=O)N[C@@H](CCCCN)C(N)=O)CNC3=O [Peptide 17, bicyclo[Tm-(Pro-Sar-D-Asp-Pip-Nal-Arg-Tyr-D-Ala)-Dap-(Phe-Nal-Arg-Arg-Arg-Arg-Dap)]-Lys] (P[Sar][dD][Pip][2Nal]RY[dA][Dap]F[2Nal]RRRR[Dap]K-NH2; linker N-9-16 via Trimesoyl; C-terminus assumed)
2 | 1.75 ± 0.24 | CC(C)[C@@H]1NC(=O)[C@H](CCCNC(=N)N)NC(=O)[C@H](Cc2ccc3ccccc3c2)NC(=O)[C@@H]2CCCCN2C(=O)[C@@H](CC(=O)O)NC(=O)CN(C)C(=O)[C@@H]2CCCN2C(=O)c2cc3cc(c2)C(=O)NC[C@H](NC(=O)[C@@H](C)NC1=O)C(=O)N[C@@H](Cc1ccccc1)C(=O)N[C@@H](Cc1ccc2ccccc2c1)C(=O)N[C@@H](CCCNC(=N)N)C(=O)N[C@@H](CCCNC(=N)N)C(=O)N[C@@H](CCCNC(=N)N)C(=O)N[C@@H](CCCNC(=N)N)C(=O)N[C@H](C(=O)N[C@@H](CCCCN)C(N)=O)CNC3=O [Peptide 18, bicyclo[Tm-(Pro-Sar-D-Asp-Pip-Nal-Arg-Val-D-Ala)-Dap-(Phe-Nal-Arg-Arg-Arg-Arg-Dap)]-Lys] (P[Sar][dD][Pip][2Nal]RV[dA][Dap]F[2Nal]RRRR[Dap]K-NH2; linker N-9-16 via Trimesoyl; C-terminus assumed)
3 | 3.19 ± 0.5 | C[C@H]1NC(=O)[C@H](CC(=O)O)NC(=O)[C@H](CCCNC(=N)N)NC(=O)[C@H](Cc2ccc3ccccc3c2)NC(=O)[C@@H]2CCCCN2C(=O)[C@@H](CC(=O)O)NC(=O)CN(C)C(=O)[C@@H]2CCCN2C(=O)c2cc3cc(c2)C(=O)NC[C@H](NC1=O)C(=O)N[C@@H](Cc1ccccc1)C(=O)N[C@@H](Cc1ccc2ccccc2c1)C(=O)N[C@@H](CCCNC(=N)N)C(=O)N[C@@H](CCCNC(=N)N)C(=O)N[C@@H](CCCNC(=N)N)C(=O)N[C@@H](CCCNC(=N)N)C(=O)N[C@H](C(=O)N[C@@H](CCCCN)C(N)=O)CNC3=O [Peptide 20, bicyclo[Tm-(Pro-Sar-D-Asp-Pip-Nal-Arg-Asp-D-Ala)-Dap-(Phe-Nal-Arg-Arg-Arg-Arg-Dap)]-Lys] (P[Sar][dD][Pip][2Nal]RD[dA][Dap]F[2Nal]RRRR[Dap]K-NH2; linker N-9-16 via Trimesoyl; C-terminus assumed)

Continued, molecule first:

Row | SMILES | Kd [µM]
4 | C[C@H](O)[C@H]1NC(=O)[C@H](Cc2ccc(F)cc2)NC(=O)[C@@H](Cc2ccccc2)NC(=O)c2cc3cc(c2)C(=O)NC[C@H](NC(=O)[C@H](CCCNC(=N)N)NC(=O)[C@H](Cc2ccc4ccccc4c2)NC(=O)[C@@H]2CCCCN2C1=O)C(=O)N[C@@H](Cc1ccccc1)C(=O)N[C@@H](Cc1ccc2ccccc2c1)C(=O)N[C@@H](CCCNC(=N)N)C(=O)N[C@@H](CCCNC(=N)N)C(=O)N[C@@H](CCCNC(=N)N)C(=O)N[C@@H](CCCNC(=N)N)C(=O)N[C@H](C(=O)N[C@@H](CCCCN)C(N)=O)CNC3=O [Peptide 12, bicyclo[Tm-(D-Phe-Fpa-D-Thr-Pip-Nal-Arg)-Dap-(Phe-Nal-Arg-Arg-Arg-Arg-Dap)]-Lys] ([dF][Phe(4-F)][dT][Pip][2Nal]R[Dap]F[2Nal]RRRR[Dap]K-NH2; linker N-7-14 via Trimesoyl; C-terminus assumed) | 2.36 ± 0.48
5 | C[C@@H]1NC(=O)[C@H](CCCNC(=N)N)NC(=O)[C@H](Cc2ccc3ccccc3c2)NC(=O)[C@@H]2CCCCN2C(=O)[C@@H](CC(=O)O)NC(=O)CN(C)C(=O)[C@@H]2CCCN2C(=O)c2cc3cc(c2)C(=O)NC[C@@H](C(=O)N[C@@H](CCCCN)C(N)=O)NC(=O)[C@H](CCCNC(=N)N)NC(=O)[C@H](CCCNC(=N)N)NC(=O)[C@H](CCCNC(=N)N)NC(=O)[C@H](CCCNC(=N)N)NC(=O)[C@H](Cc2ccc4ccccc4c2)NC(=O)[C@H](Cc2ccccc2)NC(=O)[C@H](CNC3=O)NC(=O)CCNC1=O [Peptide 13, bicyclo[Tm-(Pro-Sar-D-Asp-Pip-Nal-Arg-Ala-β-Ala)-Dap-(Phe-Nal-Arg-Arg-Arg-Arg-Dap)]-Lys] (P[Sar][dD][Pip][2Nal]RA[βAla][Dap]F[2Nal]RRRR[Dap]K-NH2; linker N-9-16 via Trimesoyl; C-terminus assumed) | 2.08 ± 0.31
6 | C[C@H]1NC(=O)CCNC(=O)[C@H](CCCNC(=N)N)NC(=O)[C@H](Cc2ccc3ccccc3c2)NC(=O)[C@@H]2CCCCN2C(=O)[C@@H](CC(=O)O)NC(=O)CN(C)C(=O)[C@@H]2CCCN2C(=O)c2cc3cc(c2)C(=O)NC[C@H](NC1=O)C(=O)N[C@@H](Cc1ccccc1)C(=O)N[C@@H](Cc1ccc2ccccc2c1)C(=O)N[C@@H](CCCNC(=N)N)C(=O)N[C@@H](CCCNC(=N)N)C(=O)N[C@@H](CCCNC(=N)N)C(=O)N[C@@H](CCCNC(=N)N)C(=O)N[C@H](C(=O)N[C@@H](CCCCN)C(N)=O)CNC3=O [Peptide 14, bicyclo[Tm-(Pro-Sar-D-Asp-Pip-Nal-Arg-β-Ala-D-Ala)-Dap-(Phe-Nal-Arg-Arg-Arg-Arg-Dap)]-Lys] (P[Sar][dD][Pip][2Nal]R[βAla][dA][Dap]F[2Nal]RRRR[Dap]K-NH2; linker N-9-16 via Trimesoyl; C-terminus assumed) | 1.75 ± 0.18
7 | C[C@@H]1NC(=O)[C@H](CCCNC(=N)N)NC(=O)[C@H](Cc2ccc3ccccc3c2)NC(=O)[C@@H]2CCCCN2C(=O)[C@@H](CC(=O)O)NC(=O)CN(C)C(=O)[C@@H]2CCCN2C(=O)c2cc3cc(c2)C(=O)NC[C@H](NC(=O)[C@@H](C)NC(=O)[C@@H](C)NC1=O)C(=O)N[C@@H](Cc1ccccc1)C(=O)N[C@@H](Cc1ccc2ccccc2c1)C(=O)N[C@@H](CCCNC(=N)N)C(=O)N[C@@H](CCCNC(=N)N)C(=O)N[C@@H](CCCNC(=N)N)C(=O)N[C@@H](CCCNC(=N)N)C(=O)N[C@H](C(=O)N[C@@H](CCCCN)C(N)=O)CNC3=O [Peptide 16, bicyclo[Tm-(Pro-Sar-D-Asp-Pip-Nal-Arg-Ala-D-Ala-D-Ala)-Dap-(Phe-Nal-Arg-Arg-Arg-Arg-Dap)]-Lys] (P[Sar][dD][Pip][2Nal]RA[dA][dA][Dap]F[2Nal]RRRR[Dap]K-NH2; linker N-10-17 via Trimesoyl; C-terminus assumed) | 2.49 ± 0.57
8 | C[C@H]1NC(=O)[C@H](CCCNC(=N)N)NC(=O)[C@H](CCCNC(=N)N)NC(=O)[C@H](Cc2ccc3ccccc3c2)NC(=O)[C@@H]2CCCCN2C(=O)[C@@H](CC(=O)O)NC(=O)CN(C)C(=O)[C@@H]2CCCN2C(=O)c2cc3cc(c2)C(=O)NC[C@H](NC1=O)C(=O)N[C@@H](Cc1ccccc1)C(=O)N[C@@H](Cc1ccc2ccccc2c1)C(=O)N[C@@H](CCCNC(=N)N)C(=O)N[C@@H](CCCNC(=N)N)C(=O)N[C@@H](CCCNC(=N)N)C(=O)N[C@@H](CCCNC(=N)N)C(=O)N[C@H](C(=O)N[C@@H](CCCCN)C(N)=O)CNC3=O [Peptide 19, bicyclo[Tm-(Pro-Sar-D-Asp-Pip-Nal-Arg-Arg-D-Ala)-Dap-(Phe-Nal-Arg-Arg-Arg-Arg-Dap)]-Lys] (P[Sar][dD][Pip][2Nal]RR[dA][Dap]F[2Nal]RRRR[Dap]K-NH2; linker N-9-16 via Trimesoyl; C-terminus assumed) | 0.72 ± 0.09
9 | CN1CC(=O)N[C@H](CC(=O)O)C(=O)N2CCCC[C@H]2C(=O)N[C@@H](Cc2ccc3ccccc3c2)C(=O)N[C@@H](CCCNC(=N)N)C(=O)N[C@@H](CCCNC(=N)N)C(=O)N[C@H](Cc2ccccc2)C(=O)N[C@H]2CNC(=O)c3cc(cc(c3)C(=O)N3CCC[C@H]3C1=O)C(=O)NC[C@@H](C(=O)N[C@@H](CCCCN)C(N)=O)NC(=O)[C@H](CCCNC(=N)N)NC(=O)[C@H](CCCNC(=N)N)NC(=O)[C@H](CCCNC(=N)N)NC(=O)[C@H](CCCNC(=N)N)NC(=O)[C@H](Cc1ccc3ccccc3c1)NC(=O)[C@H](Cc1ccccc1)NC2=O [Peptide 22, bicyclo[Tm-(Pro-Sar-D-Asp-Pip-Nal-Arg-Arg-D-Phe)-Dap-(Phe-Nal-Arg-Arg-Arg-Arg-Dap)]-Lys] (P[Sar][dD][Pip][2Nal]RR[dF][Dap]F[2Nal]RRRR[Dap]K-NH2; linker N-9-16 via Trimesoyl; C-terminus assumed) | 0.48
10 | CN1CC(=O)N[C@H](CC(=O)O)C(=O)N2CCCC[C@H]2C(=O)N[C@@H](Cc2ccc3ccccc3c2)C(=O)N[C@@H](CCCNC(=N)N)C(=O)N[C@@H](CCCNC(=N)N)C(=O)N[C@H](CCCNC(=N)N)C(=O)N[C@H]2CNC(=O)c3cc(cc(c3)C(=O)N3CCC[C@H]3C1=O)C(=O)NC[C@@H](C(=O)N[C@@H](CCCCN)C(N)=O)NC(=O)[C@H](CCCNC(=N)N)NC(=O)[C@H](CCCNC(=N)N)NC(=O)[C@H](CCCNC(=N)N)NC(=O)[C@H](CCCNC(=N)N)NC(=O)[C@H](Cc1ccc3ccccc3c1)NC(=O)[C@H](Cc1ccccc1)NC2=O [Peptide 24, bicyclo[Tm-(Pro-Sar-D-Asp-Pip-Nal-Arg-Arg-D-Arg)-Dap-(Phe-Nal-Arg-Arg-Arg-Arg-Dap)]-Lys] (P[Sar][dD][Pip][2Nal]RR[dR][Dap]F[2Nal]RRRR[Dap]K-NH2; linker N-9-16 via Trimesoyl; C-terminus assumed) | 1.31 ± 0.1
11 | CN1CC(=O)N[C@H](CC(=O)O)C(=O)N2CCCC[C@H]2C(=O)N[C@@H](Cc2ccc3ccccc3c2)C(=O)N[C@@H](CCCNC(=N)N)C(=O)N[C@@H](CCCNC(=N)N)C(=O)N[C@H](CC(=O)O)C(=O)N[C@H]2CNC(=O)c3cc(cc(c3)C(=O)N3CCC[C@H]3C1=O)C(=O)NC[C@@H](C(=O)N[C@@H](CCCCN)C(N)=O)NC(=O)[C@H](CCCNC(=N)N)NC(=O)[C@H](CCCNC(=N)N)NC(=O)[C@H](CCCNC(=N)N)NC(=O)[C@H](CCCNC(=N)N)NC(=O)[C@H](Cc1ccc3ccccc3c1)NC(=O)[C@H](Cc1ccccc1)NC2=O [Peptide 25, bicyclo[Tm-(Pro-Sar-D-Asp-Pip-Nal-Arg-Arg-D-Asp)-Dap-(Phe-Nal-Arg-Arg-Arg-Arg-Dap)]-Lys] (P[Sar][dD][Pip][2Nal]RR[dD][Dap]F[2Nal]RRRR[Dap]K-NH2; linker N-9-16 via Trimesoyl; C-terminus assumed) | 4.6 ± 1.42

Same assay, conditions: peptide 22 vs 3; peptide 27 vs 4

Row | Improvement of Pin1 binding by D-Phe for D-Ala vs parent peptide [fold] | SMILES
12 | ~2 | CN1CC(=O)N[C@H](CC(=O)O)C(=O)N2CCCC[C@H]2C(=O)N[C@@H](Cc2ccc3ccccc3c2)C(=O)N[C@@H](CCCNC(=N)N)C(=O)N[C@@H](CCCNC(=N)N)C(=O)N[C@H](Cc2ccccc2)C(=O)N[C@H]2CNC(=O)c3cc(cc(c3)C(=O)N3CCC[C@H]3C1=O)C(=O)NC[C@@H](C(=O)N[C@@H](CCCCN)C(N)=O)NC(=O)[C@H](CCCNC(=N)N)NC(=O)[C@H](CCCNC(=N)N)NC(=O)[C@H](CCCNC(=N)N)NC(=O)[C@H](CCCNC(=N)N)NC(=O)[C@H](Cc1ccc3ccccc3c1)NC(=O)[C@H](Cc1ccccc1)NC2=O [Peptide 22, bicyclo[Tm-(Pro-Sar-D-Asp-Pip-Nal-Arg-Arg-D-Phe)-Dap-(Phe-Nal-Arg-Arg-Arg-Arg-Dap)]-Lys] (P[Sar][dD][Pip][2Nal]RR[dF][Dap]F[2Nal]RRRR[Dap]K-NH2; linker N-9-16 via Trimesoyl; C-terminus assumed)
